Test results from US8338333B1, “Methods for controlling weeds including kudzu” (priority 2009, dated 2012).

Experiments:
kudzu [1] = conditions: thirteen applications over a five year period; cited from earlier work
kudzu [2] = experiment: Field trial (Holcomb): kudzu regrowth, green biomass dry weight per plot; type: in vivo, Pueraria montana (Lour.) Merr. variety lobata (Willd.); conditions: 6 WAT, applied mid September at maximum labeled rates, untreated control .81, Lsd .41
Text: Field trials: Uniform areas of land infested with kudzu were identified in Holcomb and Yazoo City, Miss. Plots were one by two meters separated by a narrow strip to prevent cross-contamination of herbicides in Holcomb. Plots were three by three meters in Yazoo City. Herbicides were applied with an hand held boom sprayer equipped with a Teejet 8002 EVS flat fan nozzles, adjusted to 207 kPa, and applied at 1.3 m/s in a single pass to deliver 61.2 L/ha to the treatment areas. Commercial formulations of herbicides were applied at their maximum labeled rates. Herbicides were applied to both sites in mid September. In Holcomb, vegetation within a 0.3 m^2 area of each test plot was harvested at 6 weeks after treatment. Green plant matter was collected and dried as an estimate of above-ground healthy biomass. Biomass of treated plots was compared to untreated plots to determine percent control. In Yazoo City, the percentage reduction in leaf cover was determined by counting the number of leaves intersected by a grid containing 100 intersections (at 10 centimeter intervals) per one meter square.
Translocation of herbicides to roots is vital to achieving control of established perennial species like kudzu having deep root systems and a high capacity for regrowth. Other weeds such as redvine, silverleaf nightshade, and yellow and purple nutsedge with deep perenniating underground structures may also be more easily controlled. Without being bound by theory, the field application occurred in September when carbon allocation in kudzu shifts to root reserve replenishment which could facilitate herbicide translocation and may account for the greater activity of the combination of trifloxysulfuron and glyphosate on suppressing regrowth.

kudzu [3] = experiment: Greenhouse trial: kudzu control by reduction of above-ground green biomass; type: in vivo, Pueraria montana (Lour.) Merr. variety lobata (Willd.); conditions: 2 WAT, vs untreated plants, dry weight basis, rate (units/A) differs per treatment as in Table 1
Experimental: (§1) Greenhouse trials: Kudzu was established from seed in flats containing a 2:3 (w:w) mixture of soil (Bosket silt clay loam, fine-silty, mixed thermic Aeric Ochraqualf) and potting media. Seedlings were transferred to 10 cm diameter pots containing the same soil mixture when they developed two true leaves. Pots were placed in the greenhouse, set at 30°±2° C., and equipped with supplemental lighting to provide a 14-h photoperiod. Pots were irrigated as needed and fertilized every three weeks with slow release Osmocote® fertilizer at 1.5 g/pot. […] Plants were selected for size uniformity from a population of approximately three times that necessary to establish a test.
(§2) Herbicides were applied with a pneumatic track sprayer with a TeeJet 8002 flat-fan nozzle delivering 187 L/ha water at 179 kPa. The rates utilized in this study were based on the allowable rates according to the label of the herbicide containers. Kudzu was evaluated for herbicide injury expressed as the percentage of above-ground green biomass remaining at 2 weeks after treatment (WAT) compared to untreated plants (control) on a dry weight basis. Treatments were arranged in a randomized complete block design with four replications and the experiment was repeated. Data were analyzed using the Proc Mixed procedure in SAS and means were separated using a Fisher's Protected least significant difference (LSD) at P=0.05.
In greenhouse studies, shoot biomass was determined at 2 WAT. […] For those skilled in the art of weed control, enhanced control resulting from glyphosate and an ALS inhibitor would not be expected. […] Those with high initial activity against kudzu may provide suitable kudzu control when mixed with glyphosate.

kudzu [4] = experiment: Glyphosate and trifloxysulfuron at reduced rates on kudzu (Example 2); type: in vivo, Pueraria montana (Lour.) Merr. variety lobata (Willd.)
Experimental: as §1, §2
The labeled recommended rate of glyphosate for kudzu control was 80 to 106 ounces per acre which was well above the rates tested herein. In Table 2 the rates were 8, 16 and 22 oz formulated glyphosate (WeatherMax™) per acre with trifloxysulfuron at 4.25 grams per acre. The ability to achieve control of kudzu at reduced rates of herbicide was a further indication that a unique effect was observed and allowed control using less pesticide.

mature kudzu vines = experiment: Field: post-emergence application to mature kudzu stands (FIG. 4); type: in vivo, Pueraria montana (Lour.) Merr. variety lobata (Willd.); conditions: 3 WAT, single post-emergence application, rates per Table 4
Text: The labeled recommended rate of glyphosate, for kudzu control was 80 to 106 ounces per acre which was well above the rates tested herein. ALS inhibitors were used at label rates. Post-emergence applications of the treatments listed in Table 4 were made to mature kudzu stands growing over a Bermuda grass turf. […] When ALS inhibitors were applied alone, less than 10% control was observed 3 WAT, whereas glyphosate alone provided less than 26% control.

Row | SMILES | Kudzu Regrowth Gram dry wgt per plot (kudzu [2]) | Control (%), kudzu control based on percent reduction of above-ground green biomass (kudzu [3]) [%] | further results
1 | O=C(O)COc1cc(Cl)c(Cl)cc1Cl [2,4,5-trichlorophenoxyacetic acid] | – | – | killing of all kudzu crowns (kudzu [1]): not successful in killing all crowns
2 | CCNc1nc(Cl)nc(NC(C)C)n1 [atrazine] | .59 Gram dry wgt per plot | – | –
3 | CCOc1nc(F)cc2nc(S(=O)(=O)Nc3c(Cl)cccc3C(=O)O)nn12 [chloransulam] | – | 11 | –
4 | COc1cc(Cl)nc(NC(=O)NS(=O)(=O)c2ccccc2C(=O)O)n1 [chlorimuron] | – | 0 | –
5 | O=C(O)CNCP(=O)(O)O [glyphosate] | .52 Gram dry wgt per plot | – | Kudzu Control (%) (kudzu [4]; glyphosate 0.35 lb./A alone): 33%; Kudzu Control (%) (kudzu [4]; glyphosate 0.7 lb./A alone): 95%; Kudzu Control (%) (kudzu [4]; glyphosate 1 lb./A alone): 97%; control of mature kudzu (mature kudzu vines): less than 26%
6 | CSc1nnc(C(C)(C)C)c(=O)n1N [metribuzin] | .51 Gram dry wgt per plot | – | –
7 | COc1nc(C)nc(NC(=O)NS(=O)(=O)c2ccccc2C(=O)O)n1 [metsulfuron] | – | 87 | –
8 | COc1cc(OC)nc(NC(=O)NS(=O)(=O)c2ncccc2OCC(F)(F)F)n1 [trifloxysulfuron] | – | 93 | Kudzu Control (%) (kudzu [4]; trifloxysulfuron 4.25 g/A alone): 72%
